Laboratory results: patent publication US9890117B2, “Benzamide compounds and related methods of use” (Northwestern University, priority 2012, dated 2018)
Structures can show the parent of a compound that is named as a salt.

Assays:
SIRT2 = molecular target: T1, SIRT2 (Homo sapiens, UniProt Q8IXJ6); assay: Fluor-de-Lys biochemical sirtuin deacetylation assay, SIRT2; settings: 10 μM
T1 construct: recombinant active enzymes SIRT1, SIRT2, and the catalytically active fragment of SIRT3
T1 sequence (Q8IXJ6 1-389): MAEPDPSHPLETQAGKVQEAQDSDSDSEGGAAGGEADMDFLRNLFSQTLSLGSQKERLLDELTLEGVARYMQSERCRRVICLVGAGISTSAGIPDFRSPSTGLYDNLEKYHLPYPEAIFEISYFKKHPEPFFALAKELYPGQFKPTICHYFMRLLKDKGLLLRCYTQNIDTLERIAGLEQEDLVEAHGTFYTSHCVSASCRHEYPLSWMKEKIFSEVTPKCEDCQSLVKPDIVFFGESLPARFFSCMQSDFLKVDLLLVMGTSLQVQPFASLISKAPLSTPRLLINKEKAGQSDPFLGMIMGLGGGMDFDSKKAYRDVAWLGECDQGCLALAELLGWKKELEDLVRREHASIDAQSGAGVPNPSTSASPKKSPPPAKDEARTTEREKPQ

| SMILES | melting point | inhibition at 10 µM (SIRT2) [%] |
| --- | --- | --- |
| CN(c1ccc(Cl)cc1)S(=O)(=O)c1cccc(C(=O)Nc2ccc(C#N)cc2F)c1 [Compound 203Ab, 3-(N-(4-chlorophenyl)-N-methylsulfamoyl)-N-(4-cyano-2-fluorophenyl)benzamide] | 158 to 159 °C | – |
| CN(C(=O)c1cccc(S(=O)(=O)N(C)c2ccc(Cl)cc2)c1)c1ccc(C#N)cc1F [Compound 203Ac, 3-(N-(4-chlorophenyl)-N-methylsulfamoyl)-N-(4-cyano-2-fluorophenyl)-N-methylbenzamide] | 169 to 170 °C | 15 |
| CN(c1ccc(S(C)(=O)=O)cc1)S(=O)(=O)c1cccc(C(=O)Nc2ccc(Cl)cc2F)c1 [Compound 203Ae, N-(4-chloro-2-fluorophenyl)-3-(N-methyl-N-(4-(methylsulfonyl)phenyl)sulfamoyl)-benzamide] | 182 to 183 °C | 26 |
| CN(c1ccc(CN)cc1)S(=O)(=O)c1cccc(C(=O)Nc2ccc(C#N)cc2)c1.Cl [Compound 203Af, 3-(N-(4-(aminomethyl)phenyl)-N-methylsulfamoyl)-N-(4-cyanophenyl)benzamide hydrochloride] | 169 to 171 °C | 15 |
| CN(C(=O)c1cccc(S(=O)(=O)N(C)c2ccc([S+](C)[O-])cc2)c1)c1ccc(Cl)cc1F (centres unmarked) [Compound 203Ag, N-(4-chloro-2-fluorophenyl)-N-methyl-3-(N-methyl-N-(4-(methylsulfinyl)phenyl)-sulfamoyl)benzamide] | 104 to 106 °C | 14 |
| CN(C(=O)c1cccc(S(=O)(=O)N(C)c2ccc(S(C)(=O)=O)cc2)c1)c1ccc(Cl)cc1F [Compound 203Ah, N-(4-chloro-2-fluorophenyl)-N-methyl-3-(N-methyl-N-(4-(methylsulfonyl)phenyl)-sulfamoyl)benzamide] | 159 to 160 °C | 16 |
| CN(c1ccc(S(C)(=O)=O)cc1)S(=O)(=O)c1cccc(C(=O)Nc2ccc(C#N)cc2F)c1 [Compound 203Ai, N-(4-cyano-2-fluorophenyl)-3-(N-methyl-N-(4-(methylsulfonyl)phenyl)-sulfamoyl)benzamide] | 188 to 189 °C | 16 |
| CN(c1ccc([S+](C)[O-])cc1)S(=O)(=O)c1cccc(C(=O)Nc2ccc(C#N)cc2F)c1 (centres unmarked) [Compound 203Aj, N-(4-cyano-2-fluorophenyl)-3-(N-methyl-N-(4-(methylsulfinyl)phenyl)sulfamoyl)-benzamide] | 192 to 194 °C | 10 |
| CN(C(=O)c1cccc(S(=O)(=O)N(C)c2ccc(S(C)(=O)=O)cc2)c1)c1ccc(C#N)cc1F [Compound 203Ak, N-(4-cyano-2-fluorophenyl)-N-methyl-3-(N-methyl-N-(4-(methylsulfonyl)phenyl)-sulfamoyl)benzamide] | 156 to 157 °C | 0 |
| CN(C(=O)c1cccc(S(=O)(=O)N(C)c2ccc([S+](C)[O-])cc2)c1)c1ccc(C#N)cc1F (centres unmarked) [Compound 203Al, N-(4-cyano-2-fluorophenyl)-N-methyl-3-(N-methyl-N-(4-(methylsulfinyl)phenyl)-sulfamoyl)benzamide] | 148 to 150 °C | 0 |
| CN(c1ccc(Cl)cc1)S(=O)(=O)c1cc(C(=O)Nc2ccc(C#N)cc2)ccn1 [Compound 203Am, 2-(N-(4-chlorophenyl)-N-methylsulfamoyl)-N-(4-cyanophenyl)isonicotinamide] | 195 to 197 °C | – |
| CN(c1ccc(Cl)cc1)S(=O)(=O)c1cc(C(=O)Nc2ccc([S+](C)[O-])cc2)ccn1 (centres unmarked) [Compound 203An, 2-(N-(4-chlorophenyl)-N-methylsulfamoyl)-N-(4-(methylsulfinyl)phenyl)-isonicotinamide] | 172 to 174 °C | 28 |
| CN(c1ccc([S+](C)[O-])cc1)S(=O)(=O)c1cc(C(=O)Nc2ccc(Cl)cc2F)ccn1 (centres unmarked) [Compound 203Aq, N-(4-chloro-2-fluorophenyl)-2-(N-methyl-N-(4-(methylsulfinyl)phenyl)sulfamoyl)-isonicotinamide] | 178 to 179 °C | 14 |
| CN(c1ccc([S+](C)[O-])cc1)S(=O)(=O)c1cc(C(=O)Nc2ccc(C#N)cc2)ccn1 (centres unmarked) [Compound 203Ar, N-(4-cyanophenyl)-2-(N-methyl-N-(4-(methylsulfinyl)phenyl)sulfamoyl)-isonicotinamide] | 243 to 245 °C (dec.) | 20 |
| CN(c1ccc(S(C)(=O)=O)cc1)S(=O)(=O)c1cc(C(=O)Nc2ccc(C#N)cc2)ccn1 [Compound 203As, N-(4-cyanophenyl)-2-(N-methyl-N-(4-(methylsulfonyl)phenyl)sulfamoyl)-isonicotinamide] | 224 to 226 °C | 33 |
| N#Cc1ccc(NC(=O)c2cccc(S(=O)(=O)N(c3ccc(Cl)cc3)C3CC3)c2)cc1 [Compound 203Av, 3-(N-(4-chlorophenyl)-N-cyclopropylsulfamoyl)-N-(4-cyanophenyl)benzamide] | 180 to 182 °C | 51 |
| CC(=O)c1ccc(N(C2CC2)S(=O)(=O)c2cccc(C(=O)Nc3ccc(C#N)cc3)c2)cc1 [Compound 203Aw, 3-(N-(4-acetylphenyl)-N-cyclopropylsulfamoyl)-N-(4-cyanophenyl)benzamide] | 185 to 186 °C | 61 |

| SMILES | melting point | inhibition at 10 µM (SIRT2) [%] |
| --- | --- | --- |
| CCN(c1ccc(O)cc1)S(=O)(=O)c1cccc(C(=O)Nc2ccc(C#N)cc2)c1 [Compound 203Ay, N-(4-cyanophenyl)-3-(N-ethyl-N-(4-hydroxyphenyl)sulfamoyl)benzamide] | 102 to 104 °C | 40 |
| CCOc1ccc(N(CC)S(=O)(=O)c2cccc(C(=O)Nc3ccc(C#N)cc3)c2)cc1 [Compound 203Az, N-(4-cyanophenyl)-3-(N-(4-ethoxyphenyl)-N-ethylsulfamoyl)benzamide] | 168 to 169 °C | 59 |
| CN(C(=O)c1cccc(S(=O)(=O)N(C)c2ccc(Br)cc2)c1)c1ccc(Cl)cc1F [Compound 203p, 3-(N-(4-bromophenyl)-N-methylsulfamoyl)-N-(4-chloro-2-fluorophenyl)-N-methylbenzamide] | 127 to 128 °C | – |
| CN(C(=O)c1cccc(S(=O)(=O)N(C)c2ccc(Br)cc2)c1)c1ccc(Br)cc1F [Compound 203s, N-(4-bromo-2-fluorophenyl)-3-(N-(4-bromophenyl)-N-methylsulfamoyl)-N-methylbenzamide] | 136 to 137 °C | – |
| O=C(Nc1ccc(Cl)cc1)c1cncc(CN(Cc2ccc(F)c(F)c2)C2CC2)c1 [Compound 225t, N-(4-chlorophenyl)-5-((cyclopropyl(3,4-difluorobenzyl)amino)methyl)nicotinamide hydrochloride] | – | 9 |
| CC(=O)c1ccc(NC(=O)c2cncc(CN(Cc3ccc(F)c(F)c3)C3CC3)c2)cc1 [Compound 225u, N-(4-acetylphenyl)-5-((cyclopropyl(3,4-difluorobenzyl)amino)methyl)nicotinamide hydrochloride] | – | 5 |
| O=C(Nc1ccc(C(F)(F)F)cc1)c1cncc(CN(Cc2ccc(F)c(F)c2)C2CC2)c1 [Compound 225v, 5-((cyclopropyl(3,4-difluorobenzyl)amino)methyl)-N-(4-(trifluoromethyl)phenyl)-nicotinamide hydrochloride] | – | 3 |
| N#Cc1cccc(NC(=O)c2cncc(CN(Cc3ccc(F)c(F)c3)C3CC3)c2)c1 [Compound 225w, N-(3-cyanophenyl)-5-((cyclopropyl(3,4-difluorobenzyl)amino)methyl)nicotinamide hydrochloride] | – | 20 |
| CC(=O)c1ccc(CN(Cc2cccc(C(=O)Nc3ccc(C#N)cc3)c2)C2CC2)cc1 [Compound 225x, 3-(((4-acetylbenzyl)(cyclopropyl)amino)methyl)-N-(4-cyanophenyl)benzamide hydrochloride] | – | 24 |
| O=C(Cc1ccc(Cl)cc1)c1cccc(S(=O)(=O)N2CCCCCC2)c1 [Compound 231a, 1-(3-(azepan-1-ylsulfonyl)phenyl)-2-(4-chlorophenyl)ethanone] | 135 to 136 °C | – |
| CN(c1ccc(Cl)cc1)S(=O)(=O)c1cccc(NC(=O)Nc2ccc(Cl)cc2)c1 [Compound 233a, N-(4-chlorophenyl)-3-(3-(4-chlorophenyl)ureido)-N-methylbenzenesulfonamide] | – | 0 |
| N#Cc1ccc(/N=C(/N)c2cccc(OCc3cccc(F)c3F)c2)cc1 [Compound 234a, N′-(4-cyanophenyl)-3-((2,3-difluorobenzyl)oxy)benzimidamide hydrochloride] | – | 12 |
| N#Cc1ccc(COc2cccc(/C(N)=N\c3ccc(C#N)cc3)c2)cc1 [Compound 234b, 3-((4-cyanobenzyl)oxy)-N′-(4-cyanophenyl)benzimidamide hydrochloride] | – | 12 |
| C[C@@H](Oc1cccc(/C(N)=N\c2ccc(C#N)cc2)c1)c1ccc(C#N)cc1 [Compound 234c, (R)—N′-(4-cyanophenyl)-3-(1-(4-cyanophenyl)ethoxy)benzimidamide hydrochloride] | – | 39 |
| COc1ccc(N(C)S(=O)(=O)c2cccc(/C(N)=N\c3ccc(C#N)cc3)c2)cc1 [Compound 234d, N′-(4-cyanophenyl)-3-(N-(4-methoxyphenyl)-N-methylsulfamoyl)benzimidamide hydrochloride] | – | 12 |
| N/C(=N/c1cccc([N+](=O)[O-])c1)c1cccc(S(=O)(=O)N2CCCCCC2)c1 [Compound 234e, 3-(azepan-1-ylsulfonyl)-N′-(3-nitrophenyl)benzimidamide] | – | 27 |
